This assay concerns the target human Cat S (Homo sapiens (Human), UniProt P25774). Nature of the assay: Cathepsin enzyme inhibition assay (fluorogenic peptide substrate Z-Val-Val-Arg-AMC). Type of assay: biochemical. Conditions: enzyme 1 nM, substrate 20 μM, pH 6.5. Here is the method:
Cathepsin Enzyme Inhibition Assay
Enzyme activity is measured by observing the increase in fluorescence intensity caused by cleavage of a peptide substrate containing a fluorophore whose emission is quenched in the intact peptide.
Assay buffer: 100 mM potassium phosphate pH 6.5, EDTA-Na 5 mM, Triton X-100 0.001%, DTT 5 mM.
Enzymes (all at 1 nM): human and mouse Cathepsin S, Cat K, Cat B, Cat L.
Substrate (20 μM): Z-Val-Val-Arg-AMC, except for Cat K which uses Z-Leu-Arg-AMC (both from Bachem).
AMC=7-Amino-4-Methyl-Coumarin.
Excitation 360 nm, Emission 465 nm.
Enzyme is added to the substance dilutions in 96-well microtitre plates and the reaction is started with substrate. […] IC50 are calculated by standard methods.
Inhibition of human Cat S, mouse Cat S, human Cat K, human Cat B, human Cat L and mouse Cat L have been measured separately.
human Cat S, sequence (P25774 115-331): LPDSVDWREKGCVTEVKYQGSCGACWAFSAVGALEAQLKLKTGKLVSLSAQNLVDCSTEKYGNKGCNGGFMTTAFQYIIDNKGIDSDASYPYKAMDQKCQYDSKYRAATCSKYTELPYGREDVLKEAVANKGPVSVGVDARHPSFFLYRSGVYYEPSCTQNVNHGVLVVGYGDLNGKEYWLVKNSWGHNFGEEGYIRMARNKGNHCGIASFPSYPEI
The IC50 is the midpoint of a concentration-inhibition curve. Low readings indicate greater potency, high ones weaker potency. The molecule `N#CC1(NC(=O)[C@@H]2C[C@@H](S(=O)(=O)c3ccc(-c4cc[n+]([O-])c(Cl)c4)cc3C(F)(F)F)CN2C(=O)C2(C(F)(F)F)CC2)CC1` [Example 1, (2S,4R)-4-[4-(2-Chloro-1-oxy-pyridin-4-yl)-2-trifluoromethyl-benzenesulfonyl]-1-(1-trifluoromethyl-cyclopropanecarbonyl)-pyrrolidine-2-carboxylic acid (1-cyano-cyclopropyl)-amide] registered an IC50 of 0.968 nM.
The molecule `Cc1cc(-c2ccc(S(=O)(=O)[C@@H]3C[C@@H](C(=O)NC4(C#N)CC4)N(C(=O)C4(C(F)(F)F)CC4)C3)c(C(F)(F)F)c2)cc[n+]1[O-]` [Example 2, (2S,4R)-4-[4-(2-Methyl-1-oxy-pyridin-4-yl)-2-trifluoromethyl-benzenesulfonyl]-1-(1-trifluoromethyl-cyclopropanecarbonyl)-pyrrolidine-2-carboxylic acid (1-cyano-cyclopropyl)-amide] returned an IC50 of 0.77 nM.
The value for `Cn1nc(C(F)(F)F)cc1-c1ccc(S(=O)(=O)[C@@H]2C[C@@H](C(=O)NC3(C#N)CC3)N(C(=O)C3(C(F)(F)F)CC3)C2)c(C(F)(F)F)c1` [Example 3, (2S,4R)-4-[4-(2-Methyl-5-trifluoromethyl-2Hpyrazol-3-yl)-2-trifluoromethyl-benzenesulfonyl]-1-(1-trifluoromethyl-cyclopropanecarbonyl)-pyrrolidine-2-carboxylic acid (1-cyano-cyclopropyl)-amide] was 1.02 nM.
The figure for `N#CC1(NC(=O)[C@@H]2C[C@@H](S(=O)(=O)c3ccc(-c4ccccc4OC(F)(F)F)cc3C(F)(F)F)CN2C(=O)C2(C(F)(F)F)CC2)CC1` [Example 4, (2S,4R)-4-(2′-Trifluoromethoxy-3-trifluoromethyl-biphenyl-4-sulfonyl)-1-(1-trifluoromethyl-cyclopropanecarbonyl)-pyrrolidine-2-carboxylic acid (1-cyano-cyclopropyl)-amide] is 0.978 nM.
The value for `CCOc1ccccc1-c1ccc(S(=O)(=O)[C@@H]2C[C@@H](C(=O)NC3(C#N)CC3)N(C(=O)C3(C(F)(F)F)CC3)C2)c(C(F)(F)F)c1` [Example 5, (2S,4R)-4-(2′-Ethoxy-3-trifluoromethyl-biphenyl-4-sulfonyl)-1-(1-trifluoromethyl-cyclopropanecarbonyl)-pyrrolidine-2-carboxylic acid (1-cyano-cyclopropyl)-amide] was 0.836 nM; that for `N#CC1(NC(=O)[C@@H]2C[C@@H](S(=O)(=O)c3ccc(-c4ccccc4OC4CC4)cc3C(F)(F)F)CN2C(=O)C2(C(F)(F)F)CC2)CC1` [Example 6, (2S,4R)-4-(2′-Cyclopropoxy-3-trifluoromethyl-biphenyl-4-sulfonyl)-1-(1-trifluoromethyl-cyclopropanecarbonyl)-pyrrolidine-2-carboxylic acid (1-cyano-cyclopropyl)-amide] was 1.06 nM.
With `N#CC1(NC(=O)[C@@H]2C[C@@H](S(=O)(=O)c3ccc(OC4CCC4)cc3C(F)(F)F)CN2C(=O)C2(C(F)(F)F)CC2)CC1` [Example 7, (2S,4R)-4-(4-Cyclobutoxy-2-trifluoromethyl-benzenesulfonyl)-1-(1-trifluoromethyl-cyclopropanecarbonyl)-pyrrolidine-2-carboxylic acid (1-cyano-cyclopropyl)-amide], 0.91 nM corresponded to half-maximal inhibition (IC50).
The figure for `Cc1nnn(-c2ccc(S(=O)(=O)[C@@H]3C[C@@H](C(=O)NC4(C#N)CC4)N(C(=O)C4(C(F)(F)F)CC4)C3)c(Cl)c2)n1` [Example 8, (2S,4R)-4-(2-chloro-4-(5-methyl-2H-tetrazol-2-yl)phenylsulfonyl)-N-(1-cyanocyclopropyl)-1-(1-(trifluoromethyl)cyclopropanecarbonyl)pyrrolidine-2-carboxamide] is 0.533 nM.
The figure for `Cc1nnnn1-c1ccc(S(=O)(=O)[C@@H]2C[C@@H](C(=O)NC3(C#N)CC3)N(C(=O)C3(C(F)(F)F)CC3)C2)c(Cl)c1` [Example 9, (2S,4R)-4-(2-chloro-4-(5-methyl-1H-tetrazol-1-yl)phenylsulfonyl)-N-(1-cyanocyclopropyl)-1-(1-(trifluoromethyl)cyclopropanecarbonyl)pyrrolidine-2-carboxamide] is 0.683 nM; for `N#CC1(NC(=O)[C@@H]2C[C@@H](S(=O)(=O)c3ccc(-n4cncn4)cc3Cl)CN2C(=O)C2(C(F)(F)F)CC2)CC1` [Example 10, (2S,4R)-4-(2-chloro-4-(1H-1,2,4-triazol-1-yl)phenylsulfonyl)-N-(1-cyanocyclopropyl)-1-(1-(trifluoromethyl)cyclopropanecarbonyl)pyrrolidine-2-carboxamide] it is 0.686 nM.
The value for `N#CC1(NC(=O)[C@@H]2C[C@@H](S(=O)(=O)c3ccc(-n4cncn4)cc3-n3cncn3)CN2C(=O)C2(C(F)(F)F)CC2)CC1` [Example 11, (2S,4R)—N-(1-cyanocyclopropyl)-4-(2,4-di(1H-1,2,4-triazol-1-yl)phenylsulfonyl)-1-(1-(trifluoromethyl)cyclopropanecarbonyl)pyrrolidine-2-carboxamide] was 12.6 nM; that for `N#CC1(NC(=O)[C@@H]2C[C@@H](S(=O)(=O)c3ccc(-n4nccn4)cc3Cl)CN2C(=O)C2(C(F)(F)F)CC2)CC1` [Example 12, (2S,4R)-4-(2-chloro-4-(2H-1,2,3-triazol-2-yl)phenylsulfonyl)-N-(1-cyanocyclopropyl)-1-(1-(trifluoromethyl)cyclopropanecarbonyl)pyrrolidine-2-carboxamide] was 0.56 nM.
On to `N#CC1(NC(=O)[C@@H]2C[C@@H](S(=O)(=O)c3ccc(-n4ccnn4)cc3Cl)CN2C(=O)C2(C(F)(F)F)CC2)CC1` [Example 13, (2S,4R)-4-(2-chloro-4-(1H-1,2,3-triazol-1-yl)phenylsulfonyl)-N-(1-cyanocyclopropyl)-1-(1-(trifluoromethyl)cyclopropanecarbonyl)pyrrolidine-2-carboxamide], for which the IC50 worked out at 0.568 nM.
`Cc1ncn(-c2ccc(S(=O)(=O)[C@@H]3C[C@@H](C(=O)NC4(C#N)CC4)N(C(=O)C4(C(F)(F)F)CC4)C3)c(Cl)c2)n1` [Example 14, (2S,4R)-4-(2-chloro-4-(3-methyl-1H-1,2,4-triazol-1-yl)phenylsulfonyl)-N-(1-cyanocyclopropyl)-1-(1-(trifluoromethyl)cyclopropanecarbonyl)pyrrolidine-2-carboxamide]: 0.529 nM corresponded to half-maximal inhibition (IC50). The IC50 values of the last two molecules are within 1.5-fold of each other.
In the case of `Cc1nc(C)n(-c2ccc(S(=O)(=O)[C@@H]3C[C@@H](C(=O)NC4(C#N)CC4)N(C(=O)C4(C(F)(F)F)CC4)C3)c(Cl)c2)n1` [Example 15, (2S,4R)-4-(2-chloro-4-(3,5-dimethyl-1H-1,2,4-triazol-1-yl)phenylsulfonyl)-N-(1-cyanocyclopropyl)-1-(1-(trifluoromethyl)cyclopropanecarbonyl)pyrrolidine-2-carboxamide], the 50% inhibitory concentration (IC50) is 0.61 nM.
The value for `N#CC1(NC(=O)[C@@H]2C[C@@H](S(=O)(=O)c3ccc(-n4cnc(Cl)n4)cc3Cl)CN2C(=O)C2(C(F)(F)F)CC2)CC1` [Example 16, (2S,4R)-4-(2-chloro-4-(3-chloro-1H-1,2,4-triazol-1-yl)phenylsulfonyl)-N-(1-cyanocyclopropyl)-1-(1-(trifluoromethyl)cyclopropanecarbonyl)pyrrolidine-2-carboxamide] was 0.563 nM; that for `N#CC1(NC(=O)[C@@H]2C[C@@H](S(=O)(=O)c3ccc(-n4ccc(C(F)(F)F)n4)cc3Cl)CN2C(=O)C2(C(F)(F)F)CC2)CC1` [Example 17, (2S,4R)-4-(2-chloro-4-(3-(trifluoromethyl)-1H-pyrazol-1-yl)phenylsulfonyl)-N-(1-cyanocyclopropyl)-1-(1-(trifluoromethyl)cyclopropanecarbonyl)pyrrolidine-2-carboxamide] was 0.704 nM; that for `Cc1cc(C(F)(F)F)nn1-c1ccc(S(=O)(=O)[C@@H]2C[C@@H](C(=O)NC3(C#N)CC3)N(C(=O)C3(C(F)(F)F)CC3)C2)c(Cl)c1` [Example 18, (2S,4R)-4-(2-chloro-4-(5-methyl-3-(trifluoromethyl)-1H-pyrazol-1-yl)phenylsulfonyl)-N-(1-cyanocyclopropyl)-1-(1-(trifluoromethyl)cyclopropanecarbonyl)pyrrolidine-2-carboxamide] was 0.98 nM.
`Cc1cc(-n2ccc(C(F)(F)F)n2)ccc1S(=O)(=O)[C@@H]1C[C@@H](C(=O)NC2(C#N)CC2)N(C(=O)C2(C(F)(F)F)CC2)C1` [Example 19, (2S,4R)—N-(1-cyanocyclopropyl)-4-(2-methyl-4-(3-(trifluoromethyl)-1H-pyrazol-1-yl)phenylsulfonyl)-1-(1-(trifluoromethyl)cyclopropanecarbonyl)pyrrolidine-2-carboxamide] gave an IC50 of 1.43 nM. The IC50 values of the last two molecules are within 1.5-fold of each other.
The figure for `N#CC1(NC(=O)[C@@H]2C[C@@H](S(=O)(=O)c3ccc(-c4ccccc4OC(F)(F)F)cc3)CN2C(=O)C2(C(F)(F)F)CC2)CC1` [Example 20, (2S,4R)—N-(1-cyanocyclopropyl)-4-(2′-(trifluoromethoxy)biphenyl-4-ylsulfonyl)-1-(1-(trifluoromethyl)cyclopropanecarbonyl)pyrrolidine-2-carboxamide] is 5.72 nM; for `N#CC1(NC(=O)[C@@H]2C[C@@H](S(=O)(=O)c3ccc(OC4CCC4)cc3Cl)CN2C(=O)C2(C(F)(F)F)CC2)CC1` [Example 21, (2S,4R)-4-(2-chloro-4-cyclobutoxyphenylsulfonyl)-N-(1-cyanocyclopropyl)-1-(1-(trifluoromethyl)cyclopropanecarbonyl)pyrrolidine-2-carboxamide] it is 1.07 nM.
